Measured values from paper PMC9312958, “A Novel and Selective Dopamine Transporter Inhibitor, (S)-MK-26, Promotes Hippocampal Synaptic Plasticity and Restores Effort-Related Motivational Dysfunctions” (Biomolecules, 2022).
pIC50: −log10 of the molar value.

Assays:
hDAT = molecular target: T1, hDAT (Homo sapiens, UniProt Q01959); assay: Uptake inhibition assay in HEK293 cells expressing hDAT; assay type: cell-based
T1 construct: expressed in transfected cells
Experimental: Human embryonic kidney 293 cells (HEK293 cells) were cultivated in Dulbecco’s Modified Eagle Medium (DMEM), containing 10% heat-inactivated fetal calf serum (FCS; 100 mL/L), streptomycin (100 μg/100 mL) and penicillin ([…]). Geneticin (50 μg/mL) was added to select cells stably expressing the human isoforms of dopamine, norepinephrine and serotonin transporter (hDAT, hNET, and hSERT, respectively) as described earlier. Cell lines were maintained in culture in humidified atmosphere (37 °C, 5% CO2), and passaged when reached 80–90% confluency. Cells expressing the desired transporter were seeded the day before the experiment (40,000 cells per well) or two days before the experiments (20,000 cells per well) onto poly-D-lysine (PDL)-coated 96-well plates.
Uptake inhibition experiments were carried out as reported previously. Ninety-six-well plates containing hDAT-, hNET- or hSERT-expressing cells were washed with Krebs-HEPES buffer (KHB; 25 mM HEPES, 120 mM NaCl, 5 mM KCl, 1.2 mM CaCl2, and 1.2 mM MgSO4 and 5 mM D-glucose, pH = 7.3). Cells were then preincubated with increasing concentrations of the compound diluted in KHB for 6 min. Following the pre-incubation of the cells with the compound, the tritiated substrate (hDAT: 0.15 μM [^3H]DA; hNET: 0.05 μM [^3H]MPP^+; hSERT: 0.1 μM [^3H]5-HT) was added to the wells. The uptake was terminated by removal of tritiated substrate and by washing the cells with ice-cold KHB after 1 min (for hDAT and hSERT) or 3 min (for hNET). Thereafter, 200 μL of Ultima Gold^TM XR scintillation cocktail (PerkinElmer, MA, USA) was added, the plates were shaken and the radioactivity accumulated into the cells determined in a Wal-lac 1450 MicroBeta TriLux Liquid Scintillation Counter & Lumi (GMI, Ramsey, MN, USA). Non- specific tritiated substrate uptake was measured in the presence of 100 μM cocaine (for hDAT and hNET) or 10 μM paroxetine (for hSERT), and subtracted from the data. Uptake in the presence of test drugs was normalized to the uptake in the presence of the vehicle.

[1] = tested on: CA3-CA1 hippocampal synapses; assay: Ex vivo hippocampal slice electrophysiology after i.p. treatment; assay type: in vivo, rat; settings: 10 mg/kg i.p.
Experimental: All electrophysiological experiments were conducted post mortem. Hippocampal slices (n = 12 animals/group) were prepared 1 h after the pharmacological treatments (animal experiments conducted under BMBWF-66.009/235/V/3b/2018 regulations). Animals underwent a brief sedative exposure to low CO2 inhalation and were immediately afterwards euthanized using a sharp-blade guillotining (DCAP-M, World Precision Instruments, Inc., Sarasota, FL, USA). The brains were removed and transferred to an ice-cold artificial Cerebrospinal Fluid (aCSF) solution containing (in mM): 125 NaCl, 2.5 KCl, 20 NaHCO3, 2.5 CaCl2, 1 MgCl2, 25 D-glucose, 1 NaH2PO4 (pH 7.4). Hippocampi were extracted and cut transversally with a tissue chopper (McIlwain TC752, Campden Instruments LTD., Loughborough, England) to obtain 400 µm-thick slices. Before electrophysiological assays, the slices rested for at least 1 h in a submerged recovery chamber (filled with aCSF) placed in a water bath with the temperature set at 30 °C. […]
Slice recordings were carried out in a submerged chamber receiving 3–4 mL/min of carbogenated aCSF (30 ± 2 °C). Field excitatory postsynaptic potentials (fEPSPs) were recorded using glass pipettes made of pulled capillary-glass obtained from Harvard Apparatus (Harvard Apparatus, GmbH; Hugo Sachs Elektronik, Germany). Evoked fEPSPs were recorded at the CA1 stratum-radiatum layer after electrically stimulating the collateral projections of Schaffer coming from the CA3 region as previously reported. […] Basal synaptic transmission was assessed by the generation of input/output (I/O) curves, resulting from the plotting of the field slope values (output; normalized to maximum) against the presented electrical stimulus intensity (input voltage). […] LTP was determined from the temporal progression of the fEPSP slope values (decaying phase) after LTP induction, normalized to the averaged slope values obtained before LTP-induction (base line values). The data for LTP from all slices were averaged for each animal (2–5 slices per rat were measured and averaged to yield one single value per animal). […]

T1 sequence (Q01959 whole entry): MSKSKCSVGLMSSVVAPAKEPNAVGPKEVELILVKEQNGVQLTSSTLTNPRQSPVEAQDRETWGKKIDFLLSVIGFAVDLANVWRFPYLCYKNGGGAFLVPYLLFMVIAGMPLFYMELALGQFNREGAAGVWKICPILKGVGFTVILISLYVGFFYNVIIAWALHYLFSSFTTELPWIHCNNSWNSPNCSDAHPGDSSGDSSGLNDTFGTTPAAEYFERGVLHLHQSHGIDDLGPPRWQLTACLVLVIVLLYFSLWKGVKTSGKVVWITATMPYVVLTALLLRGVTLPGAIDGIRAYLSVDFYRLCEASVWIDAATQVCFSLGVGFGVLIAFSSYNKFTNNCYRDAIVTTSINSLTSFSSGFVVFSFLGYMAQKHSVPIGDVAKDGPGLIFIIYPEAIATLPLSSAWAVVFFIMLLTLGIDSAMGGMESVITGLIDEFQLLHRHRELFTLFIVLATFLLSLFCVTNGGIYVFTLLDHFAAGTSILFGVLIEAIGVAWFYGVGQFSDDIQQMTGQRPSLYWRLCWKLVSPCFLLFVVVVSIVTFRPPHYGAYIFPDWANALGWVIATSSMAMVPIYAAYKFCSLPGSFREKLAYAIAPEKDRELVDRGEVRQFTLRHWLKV

## [O-][S@@+](Cc1cncs1)C(c1cccc(Cl)c1)c1cccc(Cl)c1 [(S)-MK-26, (S)-5-(((B(3-chlorophenyl)methyl)sulphinyl)methyl)thiazole]
hDAT
  pIC50: 6.25
hDAT; uptake inhibition, HEK293
  fold lower hDAT IC50 compared to (R)-MK-26: approximately 65 fold
  fold lower hDAT IC50 compared to (R)-Modafinil: 10 fold
[1]; old rats (~20 months), slices 1 h after injection
  basal synaptic transmission (I/O curves, fEPSP slopes): no effects
[1]; old rats
  Post-Tetanic Potentiation (1 min after LTP induction): comparable to those from the Koliphor/control group
[1]; old rats, p = 0.0133
  LTP responses (25 min after LTP induction): significant enhancement in their LTP responses
